Measured values reported in patent EP4509511A1, “SUBSTITUTED SPIRO-ISOXAZOLINYL LACTAMS, SALTS THEREOF AND THEIR USE AS HERBICIDALLY ACTIVE SUBSTANCES” (Bayer Aktiengesellschaft, priority 2023, dated 2025).

Columns and labels:
ABUTH [1] = test: Herbicidal pre-emergence action - Part I; type: in vivo, Abutilon theophrasti; conditions: visual grading after ca. 3 weeks vs untreated controls
Text: Seeds of mono- and dicotyledonous weed plants were sown in plastic pots (double sowings with one species of mono- and one species of dicotyledonous weed plants per pot), in sandy loam, and covered with soil. The compounds according to the invention, formulated in the form of wettable powders (WP) or as emulsifiable concentrates (EC), were applied to the surface of the covering soil as aqueous suspension or emulsion, with the addition of 0.5% of an additive, at an application rate of 600 1 of water per hectare (converted). Following treatment, the pots were placed in a greenhouse and kept under optimum growth conditions for the test plants. The visual grading of the damage to the test plants was carried out after ca. 3 weeks in comparison to untreated controls (herbicidaleffectinpercent(%):100%effect=plantshavediedoff,0%effect=ascontrolplants). [formula]
Tables A1 to A12, below, show the effects of selected compounds of the general formula (I) according to table 1 on various harmful plants and an application rate corresponding to 1280 g/ha or below obtained by the experimental procedure mentioned above. Table A1: pre-emergence activity at 1280g/ha against ABUTH in %

ABUTH [2] = test: Herbicidal post-emergence action - Part II; type: in vivo, Abutilon theophrasti
Text: (§1) Seeds of mono- and dicotyledonous weed plants and crop plants were sown, in plastic or organic planting pots, in sandy loam, covered with soil and grown in a greenhouse under controlled growth conditions. 2 to 3 weeks after sowing, the test plants were sprayed in the single-leaf stage. The compounds according to the invention, formulated in form of wettable powders (WP) or as emulsifiable concentrates (EC), were sprayed onto the green plant parts as aqueous suspension or emulsion, with the addition of 0.5% of an additive, at an application rate of 600 1 of water/ha (converted). The test plants were placed in the greenhouse for ca. 3 weeks under optimum growth conditions, and then the effect of the preparations was assessed visually in comparison with untreated controls (herbicidal effect in percent (%): 100% effect = plants have died off, 0% effect = as control plants). Tables E1 to E10 below show the effects of selected compounds of the general formula (I) according to table 1 on various harmful plants and an application rate corresponding to 320 g/ha or below obtained by the experimental procedure mentioned above. Table E1a: post-emergence activity at 5g/ha against ABUTH in %

AMARE = test: Herbicidal post-emergence action - Part II; type: in vivo, Amaranthus retroflexus
Text: as §1

ECHCG = test: Herbicidal post-emergence action - Part II; type: in vivo, Echinochloa crus-galli; conditions: 20 g/ha; Table E3a
Text: as §1

MATIN = test: Herbicidal post-emergence action - Part II; type: in vivo, Matricaria inodora
Text: as §1

PHBPU = test: Herbicidal post-emergence action - Part II; type: in vivo, Pharbitis purpurea
Text: as §1

POLCO = test: Herbicidal post-emergence action - Part II; type: in vivo, Polygonum convolvulus; conditions: 20 g/ha; Table E6
Text: as §1

SETVI = test: Herbicidal post-emergence action - Part II; type: in vivo, Setaria viridis; conditions: 20 g/ha; Table E7b
Text: as §1

VERPE = test: Herbicidal post-emergence action - Part II; type: in vivo, Veronica persica
Text: as §1

VIOTR = test: Herbicidal post-emergence action - Part II; type: in vivo, Viola tricolor
Text: as §1

TRZAS = test: Post-emergence effects on crop plants; type: in vivo, Triticum aestivum; conditions: crop plant
Text: as §1, with “F1” for “E1”, “F5” for “E10”, “crop” for “harmful”, “[…]:” for “E1a:”, “ZEAMX” for “ABUTH”

Row | SMILES | pre-emergence activity at 1280g/ha against ABUTH in % (ABUTH [1]) [%] | post-emergence activity against ABUTH (ABUTH [2]; 5 g/ha, Table E1a) [%] | post-emergence activity against ABUTH (ABUTH [2]; 20 g/ha, Table E1b) [%] | post-emergence activity against AMARE (AMARE; 5 g/ha, Table E2a) [%] | post-emergence activity against AMARE (AMARE; 20 g/ha, Table E2b) [%] | post-emergence activity against ECHCG (ECHCG) [%] | post-emergence activity against MATIN (MATIN; 5 g/ha, Table E4a) [%] | post-emergence activity against MATIN (MATIN; 20 g/ha, Table E4b) [%] | post-emergence activity against PHBPU (PHBPU; 5 g/ha, Table E5a) [%] | post-emergence activity against PHBPU (PHBPU; 20 g/ha, Table E5b) [%] | post-emergence activity against POLCO (POLCO) [%] | post-emergence activity against SETVI (SETVI) [%] | post-emergence activity against VERPE (VERPE; 5 g/ha, Table E8a) [%] | post-emergence activity against VERPE (VERPE; 20 g/ha, Table E8b) [%] | post-emergence activity against VIOTR (VIOTR; 5 g/ha, Table E9a) [%] | post-emergence activity against VIOTR (VIOTR; 20 g/ha, Table E9b) [%] | post-emergence activity against TRZAS (TRZAS; 5 g/ha, Table F2a) [%] | post-emergence activity against TRZAS (TRZAS; 20 g/ha, Table F2b) [%]
1 | Cc1ccsc1C1=NOC2(CCN(Cc3sc(Cl)nc3C)C2=O)C1 (racemic) [Compound I-48] | 100 |  |  |  |  |  |  |  |  |  |  |  |  |  |  |  |  | 
2 | Cn1c(C(F)(F)F)cc(=O)n(-c2cc(C3=NOC4(CCN(Cc5cccc(F)c5F)C4=O)C3)c(Cl)cc2F)c1=O (racemic) [Compound I-33] |  | 100 | 100 | 100 | 100 | 100 | 90 | 100 | 100 | 100 | 100 | 100 | 100 | 100 | 100 | 100 | 20 | 20
